Assay results published in PubChem BioAssay AID248 (DTP/NCI, 2004).
“And” between values parts separate entries of the source, which are not always exact repeats. Identical values can stand only once. Toxic doses and inconclusive results are not listed. Rule as the data show it: active = T/C of 150% or more; inactive = T/C below 125%.

Tested on: L1210 leukemia ip in BDF1 mice, survival T/C
Assay: NCI In Vivo Anticancer Drug Screen. Data for tumor model L1210 Leukemia (intraperitoneal) in B6D2F1 (BDF1) mice
Conditions: endpoint: mean survival time, higher = longer survival
How it was run: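 Tumor was transplanted into mice, which were then dosed with test compound or vehicle alone. Survival was recorded for each group, and the treated figure was expressed relative to the control figure.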

[1] = dose: 100.0 mg/kg/injection, schedule: Q01DX001 (ip), vehicle: saline
[2] = dose: 100.0 mg/kg/injection, schedule: Q01DX009 (ip), vehicle: saline
[3] = dose: 400.0 mg/kg/injection, schedule: Q01DX009 (ip), vehicle: saline
[4] = dose: 100.0 mg/kg/injection, schedule: Q04DX003 (ip), vehicle: saline with Tween-80
[5] = dose: 200.0 mg/kg/injection, schedule: Q04DX003 (ip), vehicle: saline with Tween-80
[6] = dose: 400.0 mg/kg/injection, schedule: Q04DX003 (ip), vehicle: saline with Tween-80
[7] = dose: 200.0 mg/kg/injection, schedule: Q01DX001 (ip), vehicle: saline
[8] = dose: 400.0 mg/kg/injection, schedule: Q01DX001 (ip), vehicle: saline

Measured: T/C

CCN(CC)CCCC(C)Nc1ccnc(/C=C/c2ccc(C(F)(F)F)cc2)c1 (centres undefined)
inactive: dose: 12.5 mg/kg/injection, schedule: Q01DX001 (ip), vehicle: saline 98 % of control | dose: 20.0 mg/kg/injection, schedule: Q04DX003 (ip), vehicle: saline 95 % of control | dose: 25.0 mg/kg/injection, schedule: Q01DX001 (ip), vehicle: saline 96 % of control | dose: 40.0 mg/kg/injection, schedule: Q04DX003 (ip), vehicle: saline 95 % of control | dose: 50.0 mg/kg/injection, schedule: Q01DX001 (ip), vehicle: saline 104 % of control | dose: 80.0 mg/kg/injection, schedule: Q04DX003 (ip), vehicle: saline 93 % of control | [1] 86 % of control

ClCCOCCOc1ccc(C2CCCCC2)cc1
inactive: [2] 106 % of control | dose: 200.0 mg/kg/injection, schedule: Q01DX009 (ip), vehicle: saline 97 % of control | [3] 90 % of control

Cc1ccccc1-n1c(O)c(N=Nc2ccc(Cl)cc2)c(=O)n(-c2ccccc2)c1=S
inactive: dose: 100.0 mg/kg/injection, schedule: Q01DX001 (ip), vehicle: Klucel (hydroxypropylcellulose) (HPC) 87 % of control | dose: 200.0 mg/kg/injection, schedule: Q01DX001 (ip), vehicle: Klucel (hydroxypropylcellulose) (HPC) 109 % of control

CCCCNC(=O)n1nnc2ccccc21
inactive: dose: 100.0 mg/kg/injection, schedule: Q04DX002 (ip), vehicle: saline with Tween-80 100 % of control and 103 % of control | dose: 200.0 mg/kg/injection, schedule: Q04DX002 (ip), vehicle: saline with Tween-80 105 % of control and 92 % of control | dose: 400.0 mg/kg/injection, schedule: Q04DX002 (ip), vehicle: saline with Tween-80 96 % of control and 116 % of control

N#Cc1ccc(Nc2ccc(C#N)cc2)cc1
inactive: dose: 25.0 mg/kg/injection, schedule: Q01DX009 (ip), vehicle: saline with Tween-80 105 % of control | dose: 50.0 mg/kg/injection, schedule: Q01DX009 (ip), vehicle: saline with Tween-80 94 % of control | dose: 100.0 mg/kg/injection, schedule: Q01DX009 (ip), vehicle: saline with Tween-80 94 % of control | [4] 96 % of control | [5] 96 % of control | [6] 91 % of control

NS(=O)(=O)c1ccc(NC(=O)c2ccc(C(=O)Nc3ccc(S(N)(=O)=O)cc3)cc2)cc1
inactive: [1] 100 % of control | [7] 100 % of control | [8] 100 % of control

NCC(=O)c1ccc(O)c(O)c1
inactive: [1] 101 % of control | [2] 122 % of control | dose: 100.0 mg/kg/injection, schedule: Q04DX003 (ip), vehicle: saline 97 % of control | dose: 175.0 mg/kg/injection, schedule: Q01DX Z (ip), vehicle: methylcellulose (MC) 115 % of control | [7] 93 % of control | dose: 200.0 mg/kg/injection, schedule: Q04DX003 (ip), vehicle: saline 97 % of control | dose: 260.0 mg/kg/injection, schedule: Q01DX Z (ip), vehicle: carboxymethylcellulose (CMC) 112 % of control | dose: 260.0 mg/kg/injection, schedule: Q01DX Z (ip), vehicle: methylcellulose (MC) 121 % of control | dose: 270.0 mg/kg/injection, schedule: Q01DX Z (ip), vehicle: methylcellulose (MC) 117 % of control | [8] 104 % of control | [3] 124 % of control | dose: 400.0 mg/kg/injection, schedule: Q01DX Z (ip), vehicle: methylcellulose (MC) 112 % of control | dose: 400.0 mg/kg/injection, schedule: Q04DX003 (ip), vehicle: saline 95 % of control | dose: 600.0 mg/kg/injection, schedule: Q01DX Z (ip), vehicle: carboxymethylcellulose (CMC) 116 % of control | dose: 600.0 mg/kg/injection, schedule: Q01DX Z (ip), vehicle: methylcellulose (MC) 114 % of control | dose: 1344.0 mg/kg/injection, schedule: Q01DX Z (ip), vehicle: carboxymethylcellulose (CMC) 92 % of control

CC(=O)NC1C(OC(C)=O)OC(COC(c2ccccc2)(c2ccccc2)c2ccccc2)C(OS(C)(=O)=O)C1OC(C)=O (centres undefined)
inactive: dose: 50.0 mg/kg/injection, schedule: Q04DX003 (ip), vehicle: saline with Tween-80 109 % of control | [4] 109 % of control and 91 % of control | [5] 121 % of control | [6] 88 % of control
